Measurements published in patent publication US10322097B2, “Treatment of subjects with multidrug-resistant cancer” (priority 2015, dated 2019).

Legend:
P-gp = P-gp (Homo sapiens, UniProt P08183); test: Rho123 efflux assay in A549 taxol-resistant lung cancer cells (flow cytometry)
Description: A549 taxol-resistant lung cancer cells were seeded in 6 well-plates at a final concentration of 2×10^5 cells per well and cultured for 24 h at 37° C. in an atmosphere containing 5% CO2. […] Subsequently, 5 mg/mL Rho123 was added to each well and the wells were incubated for another 1 h at 37° C. At the end of the incubation, the accumulation of Rho123 was stopped by washing the cells five times with ice-cold PBS. After cell centrifugation, cell pellets were resuspended in 400 μL PBS. […] All data acquisition and analyses were performed with CellQuest (BD Biosciences, San Jose, Calif., USA) in triplicate in three independent experiments, and the results were shown as the mean of fluorescence intensity.
A549 taxol-resistant lung cancer cells were seeded in 6 well-plates at a final concentration of 2×10^5 cells per well and cultured for 24 h at 37° C. in an atmosphere containing 5% CO2. […] All data acquisition and analyses were performed with CellQuest (BD Biosciences, San Jose, Calif., USA) in triplicate in three independent experiments, and the results were shown as the mean of fluorescence intensity.

[1] = system: CCRF-CEM (Leukemia) doxorubicin sensitive cells; test: MTT cytotoxicity assay, CCRF-CEM; type: cell-based; settings: Homo sapiens, 72 h, 3 days
Description: (§1) Cell cultures and cytotoxicity assays have been used. Celastrol was dissolved in DMSO at a final concentration of 100 mmol/L and stored at −20° C. Cytotoxicity was assessed using the 3-(4,5-dimethylthiazol-2-yl)-2,5-diphenyltetrazolium bromide assay. 4000 cells from MCF-7 doxorubicin sensitive/resistant breast cancer cells or CEM doxorubicin sensitive/resistant leukemia cells were seeded on 96-well plates per well. After overnight pre-incubation, the cells were exposed to different concentrations of celastrol (0.039-100 μmol/L) or doxorubicin for 3 days. Subsequently, 10 μL of MTT reagents were added to each well and incubated at 37° C. for 4 hours followed by the addition of 100 μL solubilization buffer (10% SDS in 0.01 mol/L HCl) and overnight incubation. Absorbance at 585 nm was determined from each well the next day. The percentage of cell viability was calculated using the following formula: Cell viability (%)=Cells number treated/Cells number DMSO control×100. Data were obtained from three independent experiments.

[2] = system: A2780 (Ovary) taxol sensitive cancer cells; test: MTT cytotoxicity assay, A2780 taxol sensitive; type: cell-based; settings: Homo sapiens, A2780, 72 h, read-out: IC50 A2780 (Ovary) (Taxol sensitive)
Description: (§2) Cell cultures and cytotoxicity assays have been used. Celastrol was dissolved in DMSO at a final concentration of 100 mmol/L and stored at −20° C. Cytotoxicity was assessed using the 3-(4,5-dimethylthiazol-2-yl)-2,5-diphenyltetrazolium bromide assay. 4000 cells from A549 (lung), A2780 (ovary), HCT-8 (colon) and MCF-7 (breast) cancer cells were seeded on 96-well plates per well. After overnight pre-incubation, the cells were exposed to different concentrations of celastrol (0.039-100 μmol/L) or taxol for 3 days. Subsequently, 10 μL of MTT reagents was added to each well and incubated at 37° C. for 4 hours followed by the addition of 100 μL solubilization buffer (10% SDS in 0.01 mol/L HCl) and overnight incubation. Absorbance at 585 nm was determined from each well the next day. The percentage of cell viability was calculated using the following formula: Cell viability (%)=Cells number treated/Cells number DMSO control×100. Data were obtained from three independent experiments.

[3] = system: A2780 (Ovary) taxol resistant cancer cells; test: MTT cytotoxicity assay, A2780 taxol resistant; type: cell-based, human; settings: for Resistant Factor: A2780 taxol resistant versus taxol sensitive
Description: as §2

[4] = system: A2780 (Ovary) cisplatin sensitive cancer cells; test: MTT cytotoxicity assay, A2780 cisplatin sensitive; type: cell-based, human; settings: Homo sapiens, A2780, 72 h, read-out: IC50 A2780 (Ovary) (Cisplatin sensitive)
Description: as §1, with “A2780 cisplatin” for “MCF-7 doxorubicin”, “ovarian” for “breast”, “SGC-7901 cisplatin” for “CEM doxorubicin”, “gastric cancer” for “leukemia”, “cisplatin” for “doxorubicin”

[5] = system: MDA-MB-231/BCRP breast cancer cells; test: MTT cytotoxicity assay, MDA-MB-231/BCRP; type: cell-based
Description: as §1, with “HEK293 and HEK293/ABCB5 kidney” for “MCF-7 doxorubicin sensitive/resistant breast”, “MDA-MB-231 pcDNA and MDA-MB-231/BCRP breast cancer” for “CEM doxorubicin sensitive/resistant leukemia”, “(0.1-10” for “(0.039-100”, “μmol/L)” for “μmol/L) or doxorubicin”

[6] = system: A549 (Lung) taxol sensitive cancer cells; test: MTT cytotoxicity assay, A549 taxol sensitive; type: cell-based; settings: Homo sapiens, A549, 72 h, read-out: IC50 A549 (Lung) (Taxol sensitive)
Description: as §2

[7] = system: A2780 (Ovary) cisplatin resistant cancer cells; test: MTT cytotoxicity assay, A2780 cisplatin resistant; type: cell-based, human
Description: as §1, with “A2780 cisplatin” for “MCF-7 doxorubicin”, “ovarian” for “breast”, “SGC-7901 cisplatin” for “CEM doxorubicin”, “gastric cancer” for “leukemia”, “cisplatin” for “doxorubicin”

Sequence of P-gp (P08183 whole entry): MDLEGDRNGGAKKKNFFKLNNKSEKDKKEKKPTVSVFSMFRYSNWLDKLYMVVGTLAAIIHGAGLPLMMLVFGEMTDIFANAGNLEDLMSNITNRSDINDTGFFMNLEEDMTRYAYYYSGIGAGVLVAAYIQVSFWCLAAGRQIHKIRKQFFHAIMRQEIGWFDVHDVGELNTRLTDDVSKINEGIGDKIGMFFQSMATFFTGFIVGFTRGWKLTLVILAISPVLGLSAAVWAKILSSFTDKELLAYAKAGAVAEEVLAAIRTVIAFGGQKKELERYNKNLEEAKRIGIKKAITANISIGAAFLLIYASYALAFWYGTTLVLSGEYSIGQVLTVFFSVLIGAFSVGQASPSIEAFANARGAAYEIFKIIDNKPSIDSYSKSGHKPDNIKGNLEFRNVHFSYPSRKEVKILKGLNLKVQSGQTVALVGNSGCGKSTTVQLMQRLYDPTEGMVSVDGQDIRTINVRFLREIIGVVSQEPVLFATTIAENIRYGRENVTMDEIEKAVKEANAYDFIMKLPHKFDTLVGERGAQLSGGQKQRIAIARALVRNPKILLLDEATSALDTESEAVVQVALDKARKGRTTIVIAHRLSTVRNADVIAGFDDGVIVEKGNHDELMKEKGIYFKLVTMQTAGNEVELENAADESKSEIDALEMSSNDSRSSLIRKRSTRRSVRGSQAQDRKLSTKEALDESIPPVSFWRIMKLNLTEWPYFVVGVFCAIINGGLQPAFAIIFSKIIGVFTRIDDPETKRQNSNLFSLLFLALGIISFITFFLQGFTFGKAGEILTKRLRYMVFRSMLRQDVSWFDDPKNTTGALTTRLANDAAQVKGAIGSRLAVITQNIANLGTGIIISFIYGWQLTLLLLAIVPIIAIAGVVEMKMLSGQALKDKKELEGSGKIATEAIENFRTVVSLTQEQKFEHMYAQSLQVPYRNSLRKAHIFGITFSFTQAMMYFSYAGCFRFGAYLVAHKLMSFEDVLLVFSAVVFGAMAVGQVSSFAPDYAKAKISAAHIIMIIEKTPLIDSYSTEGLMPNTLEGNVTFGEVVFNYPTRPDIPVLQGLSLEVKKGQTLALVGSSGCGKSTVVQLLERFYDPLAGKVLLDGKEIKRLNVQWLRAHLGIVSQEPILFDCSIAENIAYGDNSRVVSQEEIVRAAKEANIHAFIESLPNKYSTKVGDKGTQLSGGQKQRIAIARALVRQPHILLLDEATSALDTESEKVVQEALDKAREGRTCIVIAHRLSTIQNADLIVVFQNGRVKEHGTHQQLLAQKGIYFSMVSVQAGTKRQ

## CC1=C(O)C(=O)C=C2C1=CC=C1[C@@]2(C)CC[C@@]2(C)[C@@H]3C[C@](C)(C(=O)O)CC[C@]3(C)CC[C@]12C [Celastrol, celastrol]
P-gp
  P-gp activity / Rho123 accumulation (Example 2): inhibited the P-gp activity dose-dependently
  P-gp activity / Rho123 accumulation (Example 9): inhibited the P-gp activity dose-dependently
[1]
  IC50: 3260 nM
[2]
  IC50: 902 nM
[3]
  Resistant Factor: 0.60
[3]; listed as celastrol
  Resistant Factor: 0.6
[3]; Homo sapiens, A2780, 72 h, read-out: IC50 A2780 (Ovary) (Taxol resistant)
  IC50: 540 nM
[4]
  IC50: 525 nM
[5]; IC50 MDA-MB-231/BCRP divided by IC50 MDA-MB-231 pcDNA
  Resistant Factor: 1.28
[5]; MDA-MB-231/BCRP, 72 h, MTT, 3 days
  IC50: 6190 nM
[6]
  IC50: 2400 nM
[7]; A2780 cisplatin resistant versus cisplatin sensitive
  Resistant Factor: 1.03
[7]; Homo sapiens, A2780, 72 h, read-out: IC50 A2780 (Ovary) (Cisplatin resistant)
  IC50: 543 nM
